This is an account of results in patent US20230085307A1, “PYRIDAZINONE COMPOUND AND HERBICIDE” (NISSAN CHEMICAL CORPORATION, priority 2019, published 2023).

Experiment [1] has as its system oval-leafed pondweed. Kind of experiment: Test Example 1: herbicidal activity, application before weed generation under submerged conditions (Table 16, symbol C). The class given is in vivo, oval-leafed pondweed (Monochoria vaginalis). As to conditions: amount of applied herbicide 320 g/ha. The essentials:
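Emulsion formulation, water-diluted to set dose, was put onto the flooded surface (4 cm depth, alluvial soil) the same day weeds were sown and 2.5-leaf rice transplanted. After 3 weeks at 25-30 °C under glass, each species was rated 0 (≤5% kill) to 5 (≥90% kill).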

Experiment [2] concerns late watergrass. Kind of experiment: Test Example 2: herbicidal activity, application during weed generation under submerged conditions (Table 17, symbol A). In kind it is in vivo, late watergrass (Echinochloa oryzicola). To be noted: AAH 320 g/ha; application during weed generation, submerged conditions. The gist of the method:
(§1)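 3-wk visual-criteria score after one water-surface dose. Emulsion formulation, water-diluted to set rate; applied at 1–2 leaf stage; alluvial soil, 4 cm standing water; seeds co-sown; greenhouse 25–30° C.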

The test system of experiment [3] is Japanese bulrush. In words: Test Example 2: herbicidal activity, application during weed generation under submerged conditions (Table 17, symbol B). In kind it is in vivo, Japanese bulrush (Schoenoplectus juncoides). As to conditions: AAH 320 g/ha; application during weed generation, submerged conditions. The gist of the method:
as §1

Experiment [4] has as its system oval-leafed pondweed. In words: Test Example 2: herbicidal activity, application during weed generation under submerged conditions (Table 17, symbol C). In kind it is in vivo, oval-leafed pondweed (Monochoria vaginalis). As to conditions: AAH 320 g/ha; application during weed generation, submerged conditions. The gist of the method: as §1
The subject of experiment [5] is Chinese sprangletop. In words: Test Example 3: herbicidal effect by foliage application, Wagner pot (Table 18, symbol D). In kind it is in vivo, chinese sprangletop (Leptochloa chinensis). To be noted: amount of applied herbicide 320 g/ha. The gist of the method: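 Plants were sown in alluvial soil held under 0.1–0.5 cm standing water and grown 14 days in a greenhouse at 25–30 °C. An emulsifiable formulation, water-diluted to the set dose, was then sprayed onto the foliage, and effects were scored three weeks later using previously defined criteria.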

Experiment [6] deals with barnyard grass. Kind of experiment: Test Example 4: herbicidal effect by soil treatment (Table 19, symbol H). The class given is in vivo, barnyard grass (Echinochloa crus-galli). As to conditions: amount of applied herbicide 320 g/ha. The essentials:
(§2)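 Soil-surface application: an emulsion agent diluted with water to the predetermined dose is sprayed uniformly over seeds lying under roughly 1.5 cm of sterilized diluvial soil. Boxes stay in a greenhouse at 25° C. to 30° C. Three weeks later, each species is graded on previously defined criteria.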

Experiment [7] has as its system wild oat. Kind of experiment: Test Example 4: herbicidal effect by soil treatment (Table 19, symbol I). In kind it is in vivo, wild oat (Avena fatua). As to conditions: amount of applied herbicide 320 g/ha. The gist of the method:
as §2

The test system of experiment [8] is blackgrass. Kind of experiment: Test Example 4: herbicidal effect by soil treatment (Table 19, symbol J). To be noted: amount of applied herbicide 320 g/ha. The class given is in vivo, blackgrass (Alopecurus myosuroides). The gist of the method: as §2
The subject of experiment [9] is redroot pigweed. In words: Test Example 4: herbicidal effect by soil treatment (Table 19, symbol N). In kind it is in vivo, redroot pigweed (Amaranthus retroflexus). To be noted: amount of applied herbicide 320 g/ha. The gist of the method: as §2
The subject of experiment [10] is lambsquarters. Kind of experiment: Test Example 4: herbicidal effect by soil treatment (Table 19, symbol O). In kind it is in vivo, lambsquarters (Chenopodium album). As to conditions: amount of applied herbicide 320 g/ha. The gist of the method: as §2
Experiment [11] relates to chickweed. In words: Test Example 4: herbicidal effect by soil treatment (Table 19, symbol P). In kind it is in vivo, common chickweed (Stellaria media). To be noted: amount of applied herbicide 320 g/ha. The essentials:
as §2

The subject of experiment [12] is false cleavers. Kind of experiment: Test Example 4: herbicidal effect by soil treatment (Table 19, symbol Q). As to conditions: amount of applied herbicide 320 g/ha. In kind it is in vivo, false cleavers (Galium spurium). The gist of the method:
as §2

The subject of experiment [13] is Italian ryegrass. In words: Test Example 5: herbicidal effect by foliage application, plastic box (Table 20, symbol K). In kind it is in vivo, Italian ryegrass (Lolium multiflorum). As to conditions: foliage application, 320 g/ha, three weeks after application. The gist of the method:
(§3)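 Sow seeds spot-wise in sterilized diluvial soil; cover with ~1.5 cm soil. Grow 14 days in greenhouse, 25° C. to 30° C. Spray foliage with emulsion diluted to predetermined amount. Rate effect after 3 weeks.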

In experiment [14] the test system is lambsquarters. In words: Test Example 5: herbicidal effect by foliage application, plastic box (Table 20, symbol O). The class given is in vivo, lambsquarters (Chenopodium album). As to conditions: foliage application, 320 g/ha, three weeks after application. The gist of the method:
as §3

Experiment [15] has as its system chickweed. Kind of experiment: Test Example 5: herbicidal effect by foliage application, plastic box (Table 20, symbol P). To be noted: foliage application, 320 g/ha, three weeks after application. The class given is in vivo, common chickweed (Stellaria media). The essentials: as §3
In experiment [16] the test system is false cleavers. In words: Test Example 5: herbicidal effect by foliage application, plastic box (Table 20, symbol Q). To be noted: foliage application, 320 g/ha, three weeks after application. The class given is in vivo, false cleavers (Galium spurium). The gist of the method: as §3
Experiment [17] has as its system persian speedwell. In words: Test Example 5: herbicidal effect by foliage application, plastic box (Table 20, symbol R). In kind it is in vivo, Persian speedwell (Veronica persica). As to conditions: foliage application, 320 g/ha, three weeks after application. The gist of the method:
as §3

With `COc1ccccc1-c1sc2cc(F)ccc2c1-c1c(O)c(C)nn(C)c1=O` [3-003], in experiment [1], the “Herbicidal effect, C: oval-leafed pondweed” value is 5 (Herbicidal rate of 90% or more (almost completely withered)). Besides, the “herbicidal effect rating, A: late watergrass” value in [2] was 2 (Herbicidal rate of 20% or more and less than 40%). Further, in [3], the “herbicidal effect rating, B: Japanese bulrush” value is 3 (Herbicidal rate of 40% or more and less than 70%). Further, in [4], the “herbicidal effect rating, C: oval-leafed pondweed” value was 4 (Herbicidal rate of 70% or more and less than 90%). Further, the “herbicidal effect on D: Chinese sprangletop” value in experiment [5] was 3 (Herbicidal rate of 40% or more and less than 70%). Moreover, in experiment [6], the “herbicidal effect, H: barnyard grass” value was 4 (Herbicidal rate of 70% or more and less than 90%). In addition, the “herbicidal effect, I: wild oat” value in [7] is 4 (Herbicidal rate of 70% or more and less than 90%). The “herbicidal effect, J: blackgrass” value in [8] is 3 (Herbicidal rate of 40% or more and less than 70%). In addition, the “herbicidal effect, N: redroot pigweed” value in experiment [9] is recorded as 5 (Herbicidal rate of 90% or more (almost completely withered)). Besides, the “herbicidal effect, O: lambsquarters” value in experiment [10] is 4 (Herbicidal rate of 70% or more and less than 90%). In addition, the “herbicidal effect, P: chickweed” value in [11] was 4 (Herbicidal rate of 70% or more and less than 90%). Besides, in [12], the “herbicidal effect, Q: false cleavers” value was 4 (Herbicidal rate of 70% or more and less than 90%). For the same compound, the “K: Italian ryegrass, herbicidal effect grade” value in experiment [13] was 5 (Herbicidal rate of 90% or more (almost completely withered)). Besides, the “O: lambsquarters, herbicidal effect grade” value in [14] is 4 (Herbicidal rate of 70% or more and less than 90%). Also, the “P: chickweed, herbicidal effect grade” value in experiment [15] is on record as 5 (Herbicidal rate of 90% or more (almost completely withered)). The “Q: false cleavers, herbicidal effect grade” value in experiment [16] is on record as 5 (Herbicidal rate of 90% or more (almost completely withered)). Also, the “R: persian speedwell, herbicidal effect grade” value in experiment [17] was 5 (Herbicidal rate of 90% or more (almost completely withered)).

As for `CCOc1ccccc1-c1sc2cc(F)ccc2c1-c1c(O)c(C)nn(C)c1=O` [3-006], the “Herbicidal effect, C: oval-leafed pondweed” value in experiment [1] was 4 (Herbicidal rate of 70% or more and less than 90%). Besides, in experiment [2], the “herbicidal effect rating, A: late watergrass” value is 3 (Herbicidal rate of 40% or more and less than 70%). The “herbicidal effect rating, B: Japanese bulrush” value in experiment [3] was 4 (Herbicidal rate of 70% or more and less than 90%). For the same compound, the “herbicidal effect rating, C: oval-leafed pondweed” value in experiment [4] was 5 (Herbicidal rate of 90% or more (almost completely withered)). Moreover, the “herbicidal effect on D: Chinese sprangletop” value in experiment [5] was 4 (Herbicidal rate of 70% or more and less than 90%). In addition, in experiment [6], the “herbicidal effect, H: barnyard grass” value is recorded as 5 (Herbicidal rate of 90% or more (almost completely withered)). For the same compound, the “herbicidal effect, I: wild oat” value in experiment [7] was 4 (Herbicidal rate of 70% or more and less than 90%). The “herbicidal effect, J: blackgrass” value in [8] is 5 (Herbicidal rate of 90% or more (almost completely withered)). Also, the “herbicidal effect, N: redroot pigweed” value in experiment [9] is reported as 5 (Herbicidal rate of 90% or more (almost completely withered)). In addition, in experiment [10], the “herbicidal effect, O: lambsquarters” value is 5 (Herbicidal rate of 90% or more (almost completely withered)). In experiment [11], the “herbicidal effect, P: chickweed” value is 5 (Herbicidal rate of 90% or more (almost completely withered)). For the same compound, the “herbicidal effect, Q: false cleavers” value in [12] was 5 (Herbicidal rate of 90% or more (almost completely withered)). Moreover, in experiment [13], the “K: Italian ryegrass, herbicidal effect grade” value was 5 (Herbicidal rate of 90% or more (almost completely withered)). For the same compound, in experiment [14], the “O: lambsquarters, herbicidal effect grade” value is 4 (Herbicidal rate of 70% or more and less than 90%). In experiment [15], the “P: chickweed, herbicidal effect grade” value is 5 (Herbicidal rate of 90% or more (almost completely withered)). The “Q: false cleavers, herbicidal effect grade” value in experiment [16] is 5 (Herbicidal rate of 90% or more (almost completely withered)). Besides, the “R: persian speedwell, herbicidal effect grade” value in experiment [17] is 5 (Herbicidal rate of 90% or more (almost completely withered)).
